The text below walks through data of patent US20150038674A1, “USE OF GLP-2 ANALOGUES IN PULMONARY DISEASES FOR THERAPEUTIC PURPOSE” (priority 2013, published 2015).

For data set [1], the system named is superoxide dismutase (SOD). Description: Superoxide dismutase activity in lung tissue. The class given is in vivo, mouse. Conditions: male BALB/c mice, Mean ± SD, same dosing groups.
In another data set the test system is active caspase-3. Description: Active caspase-3 immunoreactivity (labeling index) in alveolar area. The format is in vivo, mouse. As to conditions: male BALB/c mice, active caspase-3 immunoreactive cells, teduglutide 200 μg/kg s.c. every 12 hours for 10 days, TNF-alpha 15 μg/kg i.p., Act D 800 μg/kg i.p. As for the experimental part: (§1) In this study, 8-10 months male BALB/c mice were used. Mice were divided into 6 groups: • Group I (Control group): Mice injected with 0.1% dimethylsulfoxide (DMSO) and phosphate buffered saline (PBS, pH 7.4) via intraperitoneal way. • Group II: Mice injected with 15 μg/kg TNF-alpha (dissolved in PBS) with single dose via intraperitoneal way. • Group III: Mice injected with 800 μg/kg Act D (dissolved in DMSO) with single dose via intraperitoneal way. • Group IV: The mice given with TNF-alpha 2 minutes after Act D is administered in doses and mode of administrations above. • Group V: The mice given with 200 μg/kg teduglutide (dissolved in PBS) for 10 days uninterruptedly in every 12 hours via subcutaneous injection. • Group VI: TNF-alpha was injected to mice to which teduglutide was administered for 10 days as mentioned above, 2 minutes after Act D was administered in 11th day in above doses and mode of administration.
(§2) The mice in Group V were cut with cervical dislocation 16.5 hours after the last administration, and the mice in other groups were cut 4.5 hours after the last administration, and the lung samples were taken for microscopic and biochemical analysis.
For the identification of apoptosis in the tissue, as another way, active caspase-3 immunoreactivity was tested. For this purpose, streptavidin-biotin-peroxidase immune method was used. Sections of left lung fixed with neutral formalin were treated with 0.3% triton X-100 for 10 minutes after dewaxing and rehydratation. Following this process, they heated in 10 mM citrate buffer (pH 6.0) for 15 min in a microwave oven. The sections were incubated for 10 minutes with 3% H2O2 for blocking of endogenous peroxidase activity. The next steps were performed according to the instructions in Histostain Plus Broad Spectrum Kit (Invitrogen). The sections were incubated with polyclonal rabbit active caspase 3 antibody (1:50 in PBS, Millipore) for 1 hour at room temperature.
Immunoreaction was developed with 3-amino-9-ethylcarbazole. The sections were stained with Mayer's hematoxilin following immunostaining. PBS or nonspecific rabbit IgG primary antibody were used as negative controls.
Quantitative analysis of immunoreactive cells labeled with caspase-3 antibody was made with light microscope at ×400 magnification. For the immunoreactive cell count, 5 randomly selected fields of alveolar areas without bronchioles were examined in the lung sections of each mouse. The labeling index for caspase-3 was calculated as a percentage of immunoreactive cells in the total number of cells counted per section.

In data set [2] the test system is glutathione peroxidase (GPx). Description: Glutathione peroxidase activity in lung tissue. As to conditions: male BALB/c mice, Mean ± SD, same dosing groups. The format is in vivo, mouse.
The next data set relates to Na^+K^+ATPase. The experiment in a line: Na+K+ATPase activity in lung tissue. The format is in vivo, mouse. Conditions: male BALB/c mice, Mean ± SD, same dosing groups.
A further data set relates to tissue factor (TF). The experiment in a line: Tissue factor activity in lung tissue (Quick's one-stage method). The class given is in vivo, mouse. As to conditions: male BALB/c mice, Mean ± SD, Quick's one-stage method using normal plasma, same dosing groups.
Another data set deals with catalase (CAT). The experiment in a line: Catalase activity in lung tissue. The class given is in vivo, mouse. Conditions: male BALB/c mice, Mean ± SD, same dosing groups.
Another data set has as its system xanthine oxidase (XO). The experiment in a line: Xanthine oxidase activity in lung tissue. The class given is in vivo, mouse. As to conditions: male BALB/c mice, Mean ± SD, same dosing groups.
Another data set relates to GSH (glutathione). The experiment in a line: GSH level in lung homogenate (Beutler method). As to conditions: lung tissue, male BALB/c mice, Mean ± SD, same dosing groups. The format is in vivo, mouse.
Data set [3] concerns apoptotic cells in the lung (alveolar areas). The experiment in a line: TUNEL apoptotic index in alveolar area of lung. The format is in vivo, mouse. Conditions: male BALB/c mice, teduglutide 200 μg/kg s.c. every 12 hours for 10 days, TNF-alpha 15 μg/kg i.p., Act D 800 μg/kg i.p. As for the experimental part: as §1, §2
TUNEL (Terminal deoxynucleotidyl transferase-mediated dUTP-nick end labeling assay) method was used to identify apoptotic cells in the lung. In this method, left lung sections fixed with 10% neutral formalin for 24 hours were used. Lung sections in thickness of 5 μm were treated with proteinase K (20 ug/ml) following rehydratation, and then endogenous peroxidase activity was blocked with 3% H2O2.
Marking step was carried out with commercially available ApopTag Plus Peroxidase kit (Millipore). The reaction in apoptotic cells was developed with […]. Following this process, cell nuclei were made visible in staining with methylene green. Mice breast tissue was used as positive control. […] TUNEL positive cells in the lung were analyzed under light microscope at 400× magnification. The apoptotic index value was calculated as a percentage of apoptotic cells in total number of cells.

In another data set the test system is myeloperoxidase (MPO). Description: Myeloperoxidase activity in lung tissue. The class given is in vivo, mouse. As to conditions: male BALB/c mice, Mean ± SD, same dosing groups.
For a further data set, the system named is lipid peroxidation (LPO). The experiment in a line: Lipid peroxidation (LPO) level in lung homogenate. The class given is in vivo, mouse. As to conditions: lung tissue, male BALB/c mice, Mean ± SD, same dosing groups.
In data set [4] the test system is patients with short bowel syndrome. As to conditions: s.c. 0.05 or 0.10 mg/kg/day; cited from earlier work.
For data set [5], the system named is patients having intestinal damage with short bowel syndrome. As to conditions: cited from earlier work.
The subject of another data set is type II pneumocytes. The experiment in a line: Type II pneumocyte count (Pro-SPC immunostaining) in alveolar epithelium. As to conditions: male BALB/c mice, Pro-SPC immunoreactive cells in total number of cells, same dosing groups. The format is in vivo, mouse. As to the method: (§3) In this study, 8-10 months male BALB/c mice were used. […]
Strep-ABC immunostaining method was used in order to determine proliferative cells in the alveolar area. […] Furthermore, since it is known that type II pneumocytes give new ones to replace type I and type II pneumocytes which die or lose function in the damaged alveolar epithelium, the number of type II pneumocytes in the alveolar area were analyzed in the experimental groups. […] Proliferation index and number of type II pneumocytes in the alveolar area were calculated as ratio of immunoreactive cells in total number of cells, and the value was expressed as %. […]

Data set [6] deals with alveolar wall of mice lung. Description: Hematoxylin-eosin histology of lung sections (alveolar wall damage). The class given is in vivo, mouse. Conditions: HE-stained lung sections, male BALB/c mice; same dosing groups. As to the method:
TNF-alpha and/or Act D was administered to mice in the experiments. Act D is used in order to increase the cytotoxic effect of TNF-alpha in lung tissues. In this way, pulmonary epithelial, endothelial and mesenchymal cells were damaged in mouse lung by stimulating apoptosis, inflammation and oxidative stress. TNF-alpha. Act D and especially the combination of TNF-alpha/Act D cause the damage in alveolar wall of mice lung; it reduces the tissue factor (TF) and sodium-potassium ATPase (Na-K-ATPase) activities while stimulating apoptosis in pulmonary endotheliaL % epithelial cells, myeloperoxidase (MPO) activity in tissue and oxidative stress.
as §3

The mark [7] stands for this setting: humans, short bowel syndrome, teduglutide s.c. 0.05 or 0.10 mg/kg/day, 52 weeks.

Marks after values point to notes of the source that are not given here. Starred links: 1 amine or outer side, 2 acyl side, 3 side chain; linkers in the order of their positions; H or OH if unused. Positions of bridges follow the written chain, without caps; N, C: chain ends. Non-standard residues stand in square brackets, D forms with d. Residues, ends and D or L forms follow the SMILES beside them. Chains are numbered I, II in the order given. Actinocin(9to1) = Cc1c2oc3c(C)ccc(C(=O)[*:1])c3nc-2c(C(=O)[*:2])c(N)c1=O; NMeV = CN[C@H](C(=O)O)C(C)C; Sar = CNCC(=O)O

Turning to `Cc1c2oc3c(C)ccc(C(=O)N[C@@H]4C(=O)N[C@H](C(C)C)C(=O)N5CCC[C@H]5C(=O)N(C)CC(=O)N(C)[C@@H](C(C)C)C(=O)O[C@@H]4C)c3nc-2c(C(=O)N[C@@H]2C(=O)N[C@H](C(C)C)C(=O)N3CCC[C@H]3C(=O)N(C)CC(=O)N(C)[C@@H](C(C)C)C(=O)O[C@@H]2C)c(N)c1=O` [Act D, Actinomycin D] (I: T[dV]P[Sar][NMeV] / II: T[dV]P[Sar][NMeV]; ester I:1-I:C, II:1-II:C; linker I:N-II:N via Actinocin(9to1)), in data set [1], the SOD was 8.21 ± 2.29^g U/mg protein. For the same compound, the “caspase-3 index in alveolar areas in mice” value (“caspase-3 index” below) with active caspase-3 is on record as 0.02±0.005%. For the same compound, the GPx in data set [2] is on record as 473.28 ± 78.26^c U/g protein. In addition, the “Na^+K^+ATPase” value in the data set on Na^+K^+ATPase is on record as 3.63 ± 1.13^a nmol Pi/mg protein/h. Moreover, the TF in the data set on tissue factor (TF) is on record as 50.50 ± 8.06^d sec. Besides, in the data set with catalase (CAT), the CAT was 29.76 ± 4.34^b U/mg protein.

Regarding TNF-α, the XO in the data set on xanthine oxidase (XO) is listed as 21.53 ± 3.28^a U/mg protein; in the data set on xanthine oxidase (XO) (listed as TNF-alpha), “increased significantly”. Moreover, the GSH is on record as 10.16 ± 2.66^a nmol GSH/mg protein in the data set on GSH (glutathione) and “increased significantly” with GSH (glutathione) (listed as TNF-alpha). The entries for the “apoptotic index in alveolar areas in mice” value in [3] and in data set [3] (listed as TNF-alpha) were 0.41±0.04% and “no significant change in apoptotic index”, respectively. In addition, the SOD in [1] is on record as 6.99 ± 2.57^f U/mg protein. The MPO in the data set on myeloperoxidase (MPO) (listed as TKF-α) is 193.80 ± 31.28^c mU/g tissue; in the data set with myeloperoxidase (MPO) (listed as TNF-alpha) it was “increased significantly”. Further, the LPO was 4.51 ± 0.50^b nmol MDA/mg protein in the data set with lipid peroxidation (LPO) and “increased significantly” in the data set on lipid peroxidation (LPO) (listed as TNF-alpha). Moreover, the “caspase-3 index” value with active caspase-3 is 0.08±0.005%. Further, in data set [2], the GPx is recorded as 453.86 ± 52.35^c U/g protein. In addition, in the data set with Na^+K^+ATPase, the “Na^+K^+ATPase” value is reported as 3.96 ± 0.71^a nmol Pi/mg protein/h. Also, the TF in the data set on tissue factor (TF) was 49.08 ± 10.40^d sec. In addition, the CAT with catalase (CAT) was 42.44 ± 5.79^a U/mg protein.

For the compound `CC[C@H](C)[C@H](NC(=O)[C@H](Cc1ccccc1)NC(=O)[C@H](CC(=O)O)NC(=O)[C@H](CCCNC(=N)N)NC(=O)[C@H](C)NC(=O)[C@H](C)NC(=O)[C@H](CC(C)C)NC(=O)[C@H](CC(N)=O)NC(=O)[C@H](CC(=O)O)NC(=O)[C@H](CC(C)C)NC(=O)[C@@H](NC(=O)[C@@H](NC(=O)[C@H](CC(N)=O)NC(=O)[C@H](CCSC)NC(=O)[C@H](CCC(=O)O)NC(=O)[C@H](CC(=O)O)NC(=O)[C@H](CO)NC(=O)[C@H](Cc1ccccc1)NC(=O)[C@H](CO)NC(=O)CNC(=O)[C@H](CC(=O)O)NC(=O)CNC(=O)[C@@H](N)Cc1c[nH]cn1)[C@@H](C)O)[C@@H](C)CC)C(=O)N[C@@H](CC(N)=O)C(=O)N[C@@H](Cc1c[nH]c2ccccc12)C(=O)N[C@@H](CC(C)C)C(=O)N[C@H](C(=O)N[C@@H](CCC(N)=O)C(=O)N[C@H](C(=O)N[C@@H](CCCCN)C(=O)N[C@H](C(=O)N[C@H](C(=O)N[C@@H](CC(=O)O)C(=O)O)[C@@H](C)O)[C@@H](C)CC)[C@@H](C)O)[C@@H](C)CC` [Teduglutide], the XO in the data set with xanthine oxidase (XO) (listed as Tedoglutide) was 17.46 ± 3.16^a U/mg protein. Further, the GSH in the data set on GSH (glutathione) is listed as 43.67 ± 8.25^c nmol GSH/mg protein; in the data set on GSH (glutathione) (listed as teduglutide), “increased significantly”. Besides, the “liver function tests (AST, ALT, ALP) and renal function tests (creatinine, urea, bilirubin, glomerular filtration speed)” value in data set [4] is reported as “improvement in liver function tests”. In [3], the “apoptotic index in alveolar areas in mice” value is on record as “no significant change in apoptotic index”. Besides, in data set [5] (52 patients, s.c. 0.05 or 0.10 mg/kg/day for 52 weeks), the “reliability of long term use” value is listed as “reliable for long term use in humans”. Moreover, in data set [5] (setting [7]), the “adverse effect: abdominal pain” value is given as 25%. The “adverse effect: headache” value in [5] (setting [7]) is 35%. In [5] (setting [7]), the “adverse effect: nausea” value is listed as 31%. The SOD in data set [1] is recorded as 7.36 ± 1.28^c U/mg protein. The entries for the “type II pneumocytes in alveolar epithelium of mouse lung” value in the data set with type II pneumocytes and in the data set on type II pneumocytes (listed as teduglutide) were 16.65±1.13% and “significant decrease in type II pneumocyte number”, respectively. Moreover, the MPO in the data set on myeloperoxidase (MPO) is listed as 88.93 ± 30.32^g mU/g tissue. In addition, the LPO in the data set with lipid peroxidation (LPO) is reported as 5.31 ± 1.71^b nmol MDA/mg protein. The “caspase-3 index” value is listed as 0.00±0.00% with active caspase-3 and “decreased significantly in individuals previously treated with teduglutide to which TNF-alpha/Act D was administered” in the data set with active caspase-3 (listed as teduglutide). Also, the GPx in data set [2] is reported as 491.56 ± 171.49^b U/g protein. For the same compound, the “Na^+K^+ATPase” value with Na^+K^+ATPase is 6.46 ± 1.13^a nmol Pi/mg protein/h. The TF entry in the data set on tissue factor (TF) is recorded as “increases the TF activity”; in the data set on tissue factor (TF) (listed as Tedoglutide), 47.28 ± 9.91^d sec. Further, the CAT in the data set with catalase (CAT) is reported as 44.74 ± 7.52^d U/mg protein. The “structure of alveolar wall / alveolar epithelium under light microscope” value in [6] is “alveoli were in better condition”.
